# According to US20070060551A1, “Methods of using isothiazole derivatives to treat cancer or inflammation” (QLT, Inc., priority 2002, published 2007):
# What was measured:
# [1] = target: T1, PTPN12 (Homo sapiens, UniProt Q05209); test: PTPN12 in vitro phosphatase assay (malachite green phosphate release); type: biochemical; conditions: for % Inhibition of PTPN12: at 20 μm concentration
# T1 construct: Expression of human truncated PTPN12 (PTP-PEST-N) as a fusion protein; made in house; host or cells: E. coli strain ER2566 (IMPACT vector pTWIN-II)
# T1 sequence (Q05209 28-293 limits assumed): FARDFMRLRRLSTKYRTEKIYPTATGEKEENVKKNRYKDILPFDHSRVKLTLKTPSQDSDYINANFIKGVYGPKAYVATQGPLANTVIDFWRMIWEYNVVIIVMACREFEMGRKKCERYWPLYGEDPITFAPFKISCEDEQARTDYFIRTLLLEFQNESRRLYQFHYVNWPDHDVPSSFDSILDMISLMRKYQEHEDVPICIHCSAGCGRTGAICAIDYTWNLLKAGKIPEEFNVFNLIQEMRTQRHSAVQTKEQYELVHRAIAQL
# Protocol: Expression of human truncated PTPN12 (PTP-PEST-N) as a fusion protein required that the cDNA be ligated into the polyclonal site situated in frame and upstream of the intein gene of the IMPACT™ expression vector pTWIN-II. The truncated version was used as it was far easier to handle and gave parallel results to the full length protein in comparison testing. For the purpose of simplicity, PTP-PEST-N will be used interchangeably with PTPN12 in these Examples.
# Biochemical analysis is performed on recombinant human PTPN12 fusion protein. […] This activity is considered to be in the high range as compared to other recombinant protein tyrosine phosphatases. PTPN12 preparations were subsequently used extensively in in vitro assays for the initial discovery of compounds having the ability to inhibit PTPN12 activity.
# Compounds were tested in the following assay for their ability to inhibit the activity of the desired phosphatase.
# The enzyme (phosphatase) activity was determined in a reaction that measured phosphate relase from tyrosine phospho-specific peptides using a method first described by Harder et al., Biochem. J. (1994), Vol. 298, pp. 395-401. This is a non-radioactive method for measuring free phosphate by the malachite green method first described by Van Veldhoven and Mannaerts, Anal Biochem. (1987), Vol.161, pp. 45-48. 10× assay buffer (250 mM Tris:100 mM, β-Mercaptoethanol, 50 mM EDTA; pH 7.2) was diluted to 5× concentration with distilled H2O (dH2O). Then 71.4 μM of substrate working stock solution was prepared in dH2O.
# In a Falcon 96 well plate the sample compound was diluted in 1% DMSO (One mL DMSO (Sigma, Cat. # D-8779) dissolved in 99 mL dH2O and stored at room temperature) such that the concentration of the sample compound working stock solution is ten times the final desired concentration of the compound in the assay.
# The negative control consisted of 5 μl 1% DMSO and 35 μL substrate working stock solution and 10 μL diluted enzyme, per well), and was placed in the first column of wells on the plate. The last column of wells on the plate was reserved for an enzyme blank, which consisted of 5 μL 1% DMSO, 35 μL substrate working stock solution, and 10 μL 5× assay buffer, per well. Test samples were placed in columns 2-11 and consisted of 5 μL sample in 1% DMSO, 35 μL substrate working stock solution, and 10 μL of diluted enzyme, per well, at the desired concentration. Using the repeater function of a Biohit™ multichannel pipettor, 5 μL of 100 μM sample from the Falcon plate columns was added to corresponding Costar™ assay plate columns.
# Using a multichannel pipettor, 35 μL of 71.4 μM ppC-SRC 60 substrate was added to all assay wells, then 10 μL of appropriately diluted enzyme was added to the wells on a column by column basis, pausing 5 seconds between columns. Timing started at the first addition.
# The assay plate was incubated at room temperature (21° C.) for 15 minutes. The reaction was “stopped” by adding 100 μL colour reagent on a column by column basis, pausing 5 seconds between columns. Colour was allowed to develop for at least 15 minutes, but no longer than two hours, at room temperature. The plate was “read” on Bio-tek Instruments EL312e™ microplate Bio-Kinetics™ reader at 590 nm and the data collected as per instrument manual.
# The blank and negative controls were read, and blanks were subtracted from the average of negative control values and sample values, and the % inhibition was expressed by the following formula: % Inhibition=100−[corrected sample reading/corrected Negative Control reading*100].
# [2] = target: T2, caspase-3 (Homo sapiens, UniProt P42574); test: Caspase-3 selectivity assay (Calbiochem kit, colorimetric); type: biochemical
# T2 construct: purchased Calbiochem
# T2 sequence (P42574 29-175 limits assumed): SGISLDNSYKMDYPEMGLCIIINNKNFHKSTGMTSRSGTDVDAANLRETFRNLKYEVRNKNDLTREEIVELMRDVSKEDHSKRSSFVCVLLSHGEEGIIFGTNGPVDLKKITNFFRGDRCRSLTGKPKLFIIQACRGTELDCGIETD
# T2 sequence (P42574 176-277 limits assumed): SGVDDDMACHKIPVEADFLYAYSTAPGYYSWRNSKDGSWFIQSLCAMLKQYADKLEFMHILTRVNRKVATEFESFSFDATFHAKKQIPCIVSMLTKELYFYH
# From the text: This is a selectivity assay, which provides information about the specificity of the compounds. A cysteine residue located within the active pocket of the catalytic domain that is conserved between the […] like caspase-3 and the protein tyrosine phosphatases like PTPN12 has a thiol group within this cysteine amino acid that may interact with specific R-groups with inhibiting compounds with in vitro enzyme inhibiting activity. Also, caspase inhibition can prevent apoptosis from occurring in some cases via the caspase cascade. As the potential for cross-inhibitory activity and nonselectivity exists, the caspase-3 assay is performed on PTN12 inhibitors.
# The Calbiochem caspase-3 assay kit was utilized according to package insert instructions. The assay is useful for screening for caspase-3 inhibitors measuring the protease activity of caspase-3 and other caspase-3-like activities. Cleavage is monitored calorimetrically by measuring the increase in absorbance at 405 nm. Assays were performed in a 96-well microtiter plate format.
# [3] = tested on: various cell lines; test: Cytotoxicity assay (calcein AM cell viability); type: cell-based; conditions: approximately 24 hours incubation
# From the text: This procedure is used to assess the effects compounds have on various cell lines with respect to cell viability. Cell viability is quantified using calcein AM and measuring its conversion to a fluorescent product (calcein) with a fluorimeter.
# The principle of this assay is based on the presence of ubiquitous intracellular esterase activity found in live cells. By enzymatic reaction of esterase, non-fluorescent cell-permeant calcein AM is converted to the intensely fluorescent calcein. The polyanionic dye calcein is retained within live cells, producing a green fluorescence in live cells. […]
# Cells were collected from tissue culture flasks and trypsinized, centrifuged, resuspended and counted. […]
# The calcein AM solution is prepared by added 50 μg of calcein AM crystal (m.w. =994.87 g/mol, Molecular Probes, Eugene, Oreg.) and Anhydrous DMSO (Sigma Aldrich) to make 1 mM stock and diluting stock to 2× the final desired concentration in 1× DPBS just before the assay. […] Fluorescence data was read and recorded (Fluoroskan Ascent® FL fluorimeter (excitation˜485nm, emission˜527nm)).
# The values for replicates (usually six) are averaged and % inhibition is calculated as follows: % inhibition=100−[(AVG treatment−AVG positive control)/(AVG negative control−AVG positive control)*100]
structure (smiles),measurement,setting,value
"CS(=O)(=O)c1nsc(S(C)(=O)=O)c1C(=O)NC(=O)Nc1ccccc1Cl [1-(3,5-Bis-methanesulfonyl-isothiazole-4-carbonyl)-3-(2-chloro-phenyl)-urea]",% Inhibition of PTPN12,[1],63%
N#Cc1c(SCC(=O)Nc2ccc(S(N)(=O)=O)cc2)nsc1SCC(=O)Nc1ccc(S(N)(=O)=O)cc1 [2-{4-Cyano-3-[(4-sulfamoyl-phenylcarbamoyl)-methylsulfanyl]-isothiazol-5-ylsulfanyl}-N-(4-sulfamoyl-phenyl)-acetamide],% Inhibition of PTPN12,[1],73%
"CCS(=O)(=O)CCSc1nsc(SCCS(=O)(=O)CC)c1C#N [3,5-Bis-(2-ethanesulfonyl-ethylsulfanyl)-isothiazole-4-carbonitrile]",% Inhibition of PTPN12,[1],60%
CSc1nsc(SCc2ccccc2)c1C(N)=O [5-Benzylsulfanyl-3-methylsulfanyl-isothiazole-4-carboxylic acid amide],% Inhibition of Caspase 3,[2]; at 10 μm,4 at 10 μm %
same,% Inhibition of Caspase 3,[2]; at 100 μm,14 at 100 μm %
same,IC50,"[1]; PTPN12, unit inferred",1.5 µM
same,inhibition at 20 µM,[1]; at 20 μM (Table 2),94%
same,"cytotoxicity (cell viability, calcein AM)",[3],no cytotoxicity
"CSc1nsc(SC)c1C(=O)N1CCCCC1 [(3,5-Bis-methylsulfanyl-isothiazol-4-yl)-piperidin-1-yl-methanone]",% Inhibition of PTPN12,[1],51%
